The source of these data is US9932339B2, “Helquats with heteroaromatic substituents, preparation thereof, and use thereof as G-quadruplex stabilizers” (USTAV ORGANICKE CHEMIE A BIOCHEMIE AV CR, V.V.I., priority 2014, dated 2018).

Assay [1] relates to G-quadruplex in promoter region of the c-myc gene (NHE III1 segment). The assay is described as follows: Dual luciferase analysis with plasmid pGL4.10-myc (luc2) in HGC-27 cells. The following applies: for Quantification of expression relative to control (%): control = 100%; for activity at 50 µM / inhibition at 50 µM: Homo sapiens; for activity at 50 µM: read-out: luciferase expression relative to control (control = 100%); for inhibition at 50 µM: HGC-27, text summary of tab. 5 (50 μmol·l^−1), read-out: inhibition of expression of firefly luciferase as compared to control. It counts as cell-based, human. An excerpt: A dual luciferase analysis was used to determine the degree of stabilization of G-quadruplex in a promoter region of the c-myc gene on cellular level. Stabilization of G-quadruplex is expressed as the ratio of expression of two luciferases (firefly and Renilla) from the co-transfected vectors pGL4.10-myc (luc2) and pRL-TK (Renilla) into a cell line HGC-27 expressing c-myc protein. Expression of the reporter gene (firefly luciferase) from pGL4.10-myc vector is controlled by the c-myc regulatory region of a length of 860 by (in the range from −306 to +554). The inserted sequence contains NHE III1 segment which forms G-quadruplex [Yang, D. et al. (2010) Future Med Chem., 2, 619], and is responsible for as much as 90% of the transcriptional activity of the c-myc gene.
Level of expression of firefly luciferase reporter gene corresponds to promoter activity of c-myc and thus to the degree of stabilization of the G-quadruplex. The signal is normalized to Renilla luciferase expression from pRL-TK vector under the control of a constitutive viral thymidine kinase (HSV-TK) promoter. The amount of Renilla luciferase expression serves as an internal control for normalization of firefly signal on transfection efficiency in the sample. Plasmids pGL4.10-myc (luc2) and pRL-TK were propagated in Escherichia coli (DH5α strain) and purified using the Qiagen Plasmid Mini and Midi kits. Cells were cultured under standard conditions and in exponential growth phase were seeded into a white 96-well microtiter plates. Transfection was carried out using a transfection reagent X-tremeGENE HP DNA in OptiMEM media for two hours. The ratio of reporter and control vector was 1:1 and the ratio of transfection reagent to the total amount of DNA was 1:1. Two hours after transfection helquats were added in a concentration of 50 μmol·l^−1. Quantity of firefly and Renilla luciferases in the samples was determined 24 hours after transfection. Dual luciferase analysis was performed using a commercially available kit (Promega, cat. No. E1960) according to manufacturer's instructions. Luminescence was measured using a luminometer EnSpire Alpha Plate Reader. The data obtained were normalized to the Renilla luciferase signal and then the values were related to control.

In assay [2] the test system is CCRF-CEM. In words: XTT cytotoxicity/proliferation assay, CCRF-CEM. The assay is classed as cell-based. The method, then: To assess the antiproliferative effects of the tested substances in vitro, tumor cell line CCRF-CEM derived from acute lymphoblastic leukemia and normal (healthy) HUVEC endothelial cells from umbilical vein were used. Both of these cell lines were cultured under optimal conditions for their growth in the appropriate medium in plastic bottles or plastic Petri dishes of various sizes (TPP, BD Biosciences) at 37° C., 5% CO2 and 95% humidity. HUVEC cells were purchased from BD Biosciences. CCRF-CEM cell line was obtained from ATCC/LGC Standards (American Type Cell Collection).
Suspension cell line CCRF-CEM is a continuous in vitro culture of acute lymphoblastic leukemia. Cell line CCRF-CEM was grown in RPMI 1640 medium (Sigma-Aldrich, cat. No. R8758) supplemented with 2 mmol·l^−1 glutamine (Invitrogen, cat. No. 35050-038), 10% fetal bovine serum (FBS; Sigma-Aldrich, cat. No. F9665), 100 IU/ml penicillin, 100 μg/ml streptomycin (Sigma-Aldrich, cat. No. P0781). Passaging was carried out 2-3 times a week. Population doubling time of CCRF-CEM cells under the used culture conditions is 20 hours.
For testing of the sensitivity of cell lines to studied helquats XTT cytotoxicity/proliferation assay for determination of cell viability was used. This method is based on the ability of metabolically active cells to reduce the yellow tetrazolium salt XTT to orange formazan. The rate of conversion is measured as the increase in absorbance at 492 nm and is proportional to the enzymatic activity of mitochondrial dehydrogenases and thus the number of metabolically active (viable) cells. The output is the IC50 value corresponding to the concentration of the test substance that causes a decrease in the number of viable cells by half (i.e. 50% slowdown of cell division) relative to the control, untreated population. Thus it reflects the effectiveness of the test substance towards the tested cell line.
Cells in exponential growth phase were plated into 96-well microtiter plate at a concentration of 3000 cells per well. Each well contained 90 μl of cell suspension. The following day, 10 μl of 10× concentrated test substances was added. Effect of helquats has been studied in the concentration range 1-100 μmol·l^−1 (or 1, 2.5, 5, 7.5, 10; 15; 25; 50 and 100 μmol·l^−1). In addition to the part of the plate containing the mentioned dilutions of test compounds there were always two control columns present, first column with medium alone (i.e. blank) and the second column with the cells in medium without test compounds (control). Into the blank and control wells the same volume of solvent (water) as the volume of the substances was added. After 72 hours of treatment with substances the measurement of viability was performed according to the manufacturer instructions. Briefly, into each well of a 96-well microtiter plate 50 μl of the prepared working solution of XTT (detection reagent) was added and then the microtiter plate was returned to the CO2 incubator. After 2 hours, the absorbance of each well at 492 nm (reference wavelength 690 nm) was measured using a multifunctional microplate reader (Tecan Genios, Austria).
The results of determination of the viability of cancer and normal cells after treatment with different concentrations of test substances are summarized in Table 9. […] Each concentration of a helquat was tested in triplicates within one IC50 value determination. Each of these IC50 value determinations was repeated in at least three independent experiments. Values above 100 μmol·l^−1 were obtained by extrapolation of data measured in the concentration range 0-100 μmol·l^−1 of helquats.
A general note: Formazan colour is commonly taken as a measure of viable cells.

For assay [3], the system named is HUVEC. In words: XTT cytotoxicity/proliferation assay, HUVEC. It counts as cell-based, human. The method, then:
To assess the antiproliferative effects of the tested substances in vitro, tumor cell line CCRF-CEM derived from acute lymphoblastic leukemia and normal (healthy) HUVEC endothelial cells from umbilical vein were used. Both of these cell lines were cultured under optimal conditions for their growth in the appropriate medium in plastic bottles or plastic Petri dishes of various sizes (TPP, BD Biosciences) at 37° C., 5% CO2 and 95% humidity. HUVEC cells were purchased from BD Biosciences. CCRF-CEM cell line was obtained from ATCC/LGC Standards (American Type Cell Collection). Normal human endothelial cells from the umbilical vein are adherent cells, which were grown in plastic Petri dishes coated with collagen I. The culture medium (E-STIMTM; BD Biosciences, cat. […] Then, 5 ml of complete culture media E-STIM™ was added and the cells were centrifuged (180×g, 7 minutes), resuspended and transferred in a desired amount in a new Petri dish with fresh medium. In the experiments cells between passages 3 and 8 (after thawing) were used. Population doubling time of HUVEC cells under the used culture conditions is 38 hours. For testing of the sensitivity of cell lines to studied helquats XTT cytotoxicity/proliferation assay for determination of cell viability was used. This method is based on the ability of metabolically active cells to reduce the yellow tetrazolium salt XTT to orange formazan. The rate of conversion is measured as the increase in absorbance at 492 nm and is proportional to the enzymatic activity of mitochondrial dehydrogenases and thus the number of metabolically active (viable) cells. […] Thus it reflects the effectiveness of the test substance towards the tested cell line. Cells in exponential growth phase were plated into 96-well microtiter plate at a concentration of 3000 cells per well. Each well contained 90 μl of cell suspension. The following day, 10 μl of 10× concentrated test substances was added. […] In addition to the part of the plate containing the mentioned dilutions of test compounds there were always two control columns present, first column with medium alone (i.e. blank) and the second column with the cells in medium without test compounds (control). Into the blank and control wells the same volume of solvent (water) as the volume of the substances was added. After 72 hours of treatment with substances the measurement of viability was performed according to the manufacturer instructions. Briefly, into each well of a 96-well microtiter plate 50 μl of the prepared working solution of XTT (detection reagent) was added and then the microtiter plate was returned to the CO2 incubator. After 2 hours, the absorbance of each well at 492 nm (reference wavelength 690 nm) was measured using a multifunctional microplate reader (Tecan Genios, Austria).

The mark [4] stands for this setting: helquat 50 μmol · l^−1, HGC-27, firefly normalized to Renilla, 24 hours after transfection.
[5] abbreviates: Homo sapiens, CCRF-CEM, 72 hours of treatment, read-out: IC50 CCRF CEM.
[6] abbreviates: Homo sapiens, HUVEC, 72 hours of treatment, values above 100 μmol·l^−1 obtained by extrapolation, read-out: IC50 HUVEC.
Where [7] appears, read: Homo sapiens, CCRF-CEM, 72 hours, summary of table 9, read-out: concentrations toxic towards CCRF-CEM cells.
The mark [8] stands for this setting: Homo sapiens, HUVEC, 72 hours, summary of table 9, read-out: concentrations non-toxic towards HUVEC cells.

Where two headings read alike, the source gives them in different places.

Turning to `Cc1c(C)c2c(c3c1CC[n+]1ccc4ccccc4c1-3)-c1cccc(/C=C/c3ccc(-c4ccc(-c5cccs5)s4)s3)[n+]1CC2.O=S(=O)([O-])C(F)(F)F.O=S(=O)([O-])C(F)(F)F` [VDJA-C13-6, (E)-11-(2-([2,2′;5′,2″-terthiophen]-5-yl)vinyl)-6,7-dimethyl-4,5,8,9-tetrahydroisoquinolino[1,2-a]pyrido[1,2-k][2,9]phenanthroline-3,10-diium trifluoromethanesulfonate], the “Quantification of expression relative to control (%)” value in assay [1] (10 μmol · l^−1) amounted to 59.0 ± 17.9%; in assay [1] (50 μmol · l^−1), 27.1 ± 0.8%; in assay [1] (150 μmol · l^−1) it was 15.3 ± 2.9%. The activity at 50 µM in assay [1] (setting [4]) turned out to be 27%. For the same compound, the results for the IC50 in assay [2] (setting [5]) and in assay [3] (setting [6]) were 11 to 25 µM and at least 51 µM, respectively.

`Cc1[nH]c2ccccc2c1/C=C/c1cc2ccccc2[n+]2c1-c1c(ccc3c1-c1cccc[n+]1CCC3)CCC2.O=S(=O)([O-])C(F)(F)F.O=S(=O)([O-])C(F)(F)F` [MSC-C10-11, 19-((E)-2-(2-methyl-1H-indol-3-yl)vinyl)-6,7,8,11,12,13-hexahydropyrido[1′″,2″:1″,2″]azepino[4″,3″:5′,6′]benzo[1′,2′:3,4]azepino[1,2-a]quinoline-5,14-diium trifluoromethanesulfonate]: the “luciferase expression relative to control (control = 100%)” value in assay [1] (setting [4]) came to 74%. Besides, the IC50 in assay [2] (72 hours of treatment, read-out: IC50 CCRF CEM) is 11 to 25 µM; in assay [3] (72 hours of treatment, values above 100 μmol·l^−1 obtained by extrapolation, read-out: IC50 HUVEC), at least 100 µM.

The term inhibition denotes the percentage by which the read-out fell short of the control. For the compound `C(=C\c1c[nH]c2c1ccc1ccccc12)/c1cc2ccccc2[n+]2c1-c1c(ccc3c1-c1cccc[n+]1CCC3)CCC2` [MSC-C13-16, 19-((E)-2-(1H-benzo[g]indol-3-yl)vinyl)-6,7,8,11,12,13-hexahydropyrido[1′″,2′″:1″,2″]azepino[4″,3″:5′,6′]benzo[1′,2′:3,4]azepino[1,2-a]quinoline-5,14-diium trifluoromethanesulfonate], the inhibition at 50 µM in assay [1] was over 10%. Also, in assay [1] (setting [4]), the activity at 50 µM is 85%. Also, the IC50 is at most 10 µM in assay [2] (setting [5]), under 25 µM in assay [2] (setting [7]), at least 100 µM in assay [3] (setting [6]) and over 100 µM in assay [3] (setting [8]).

For `Cn1c(/C=C/c2cc3ccccc3[n+]3c2-c2c(ccc4c2-c2cccc[n+]2CCC4)CCC3)cc2ccccc21` [MSC-C10-10, 19-((E)-2-(1-methyl-1H-indol-2-yl)vinyl)-6,7,8,11,12,13-hexahydropyrido[1′″,2′″:1″,2″]azepino[4″,3″:5′,6′]benzo[1′,2′:3,4]azepino[1,2-a]quinoline-5,14-diium trifluoromethanesulfonate], in assay [1], the inhibition at 50 µM was over 10%. The activity at 50 µM in assay [1] (setting [4]) stood at 85%. Also, the IC50 is 11 to 25 µM in assay [2] (setting [5]), under 25 µM in assay [2] (setting [7]), at least 100 µM in assay [3] (setting [6]) and over 100 µM in assay [3] (setting [8]).

With `C(=C\c1cc2ccccc2[n+]2c1-c1c(ccc3c1-c1cccc[n+]1CCC3)CCC2)/c1ccc2[nH]ccc2c1` [MSC-C9-10, 19-((E)-2-(1H-indol-5-yl)vinyl)-6,7,8,11,12,13-hexahydropyrido[1′″,2′″:1″,2″]azepino[4″,3″:5′,6′]benzo[1′,2′:3,4]azepino[1,2-a]quinoline-5,14-diium trifluoromethanesulfonate], the inhibition at 50 µM in assay [1] was over 40%. Also, the activity at 50 µM in assay [1] (setting [4]) turned out to be 56%. Further, the IC50 was at most 10 µM in assay [2] (setting [5]), under 25 µM in assay [2] (setting [7]), at least 100 µM in assay [3] (setting [6]) and over 100 µM in assay [3] (setting [8]).
